From patent US8829039B2, “Dihydroindolinone derivatives” (Shanghai Institute of Pharmaceutical Industry, priority 2008, dated 2014)
pIC50: −log10 of the molar value.

Legend:
breast cancer cell A435 = test: Inhibition of tumor cell proliferation in vitro (MTT), A435; format: cell-based; conditions: 48 hrs, read-out: Growth inhibition in vitro IC50
Experimental: (§1) The activity assay of the compounds of the invention was carried out through common methods in the art. Commercially available Sunitinib was used as positive control, and lung cancer cell H460, colon cancer cell COLO205 and HT29, breast cancer cell A435 were used as exemplary tumor cells. The tested compounds were prepared by the methods disclosed in the Examples above.
(§2) A certain amount (100 μL/well, 0.5−1×10^4 cells/mL) of lung cancer cell H460, colon cancer cell COLO205, and breast cancer cell A435, etc. in logarithmic growth phase were seeded in a 96-well plate, and incubated in an incubator for 24 hrs at 37° C. and 5% CO2. Afterwards, tested compounds and positive control (20 μL/wells) were added, followed by 80 µL of 10% serum medium, and then the tumor cells were incubated for further 48 hrs at 37° C. and 5% CO2. Afterwards, MTT (5 mg/mL) was added to the 96-well plates (20 μL/well), and the cells were incubated for another 4 h. After removing the supernatant, the cells were dissolved with DMSO (150 μL/well) and measured with a microplate reader at 490 nm.

[1] = test system: human breast cancer cell MDA-MB-231; test: Anti-tumor activity assay (MTT), MDA-MB-231; format: cell-based; conditions: 48 hrs, samples stored at −20° C. for one week, read-out: Inhibition rate; for inhibition at 0.1 µg/mL: final concentration 0.1 μg/mL; for inhibition at 1 µg/mL: final concentration 1 μg/mL; for inhibition at 10 µg/mL: final concentration 10 μg/mL
Experimental: (§3) These tests were carried out using conventional operations in the art. Specifically, the following materials and methods were employed:
(§4) Human cervical cancer cell Hela, human liver cancer cell SMMC-7721, human lung cancer cell A549, poorly differentiated human gastric adenocarcinoma cell BGC-823, human breast cancer cell MDA-MB-231.
(§5) To a bottle containing exponential growth phase cells in good condition, 0.25% trypsin solution was added. […] The cell suspension was seeded in a 96-well plate with an amount of 100 μL/well, incubated in a CO2 incubator for 24 hrs. 20 μL/well of tested compounds were added, followed by […], of 10% serum medium, and incubated for 48 hrs. 20 μL/well of MTT (5 mg/mL) was added to the 96-well plate, and the cells were incubated for 4 hrs in the incubator. After removing the supernatant, 150 μL/well of DMSO was added, and the cells were shaked in a horizontal swing bed for 10 minutes. Optical density value (OD value) of each well was measured with an ELISA analyzer at 490 nm, and cell inhibition rate was calculated. The corresponding solvent was used as negative control, and paclitaxel was used as positive control.

[2] = test system: poorly differentiated human gastric adenocarcinoma cell BGC-823; test: Anti-tumor activity assay (MTT), BGC-823; format: cell-based; conditions: 48 hrs, samples stored at −20° C. for one week, read-out: Inhibition rate; for inhibition at 0.1 µg/mL: final concentration 0.1 μg/mL; for inhibition at 1 µg/mL: final concentration 1 μg/mL; for inhibition at 10 µg/mL: final concentration 10 μg/mL
Experimental: as §3, §4, §5

Lung cancer cell H460 = test: Inhibition of tumor cell proliferation in vitro (MTT), H460; format: cell-based; conditions: Homo sapiens, NCI-H460, 48 hrs, read-out: Growth inhibition in vitro IC50
Experimental: as §1, §2

[3] = test system: colon cancer cell COLO205; test: Inhibition of tumor cell proliferation in vitro (MTT), COLO205; format: cell-based; conditions: Homo sapiens, COLO 205, 48 hrs, read-out: Growth inhibition in vitro IC50
Experimental: as §1, §2

[4] = test system: Human cervical cancer cell Hela; test: Anti-tumor activity assay (MTT), Hela; format: cell-based; conditions: 48 hrs, samples freshly prepared with DMSO, read-out: Inhibition rate; for inhibition at 0.1 µg/mL: final concentration 0.1 μg/mL; for inhibition at 1 µg/mL: final concentration 1 μg/mL; for inhibition at 10 µg/mL: final concentration 10 μg/mL
Experimental: as §3, §4, §5

[5] = test system: human liver cancer cell SMMC-7721; test: Anti-tumor activity assay (MTT), SMMC-7721; format: cell-based; conditions: 48 hrs, samples stored at −20° C. for one week, read-out: Inhibition rate; for inhibition at 0.1 µg/mL: final concentration 0.1 μg/mL; for inhibition at 1 µg/mL: final concentration 1 μg/mL; for inhibition at 10 µg/mL: final concentration 10 μg/mL
Experimental: as §3, §4, §5

[6] = test system: human lung cancer cell A549; test: Anti-tumor activity assay (MTT), A549; format: cell-based; conditions: 48 hrs, samples stored at −20° C. for one week, read-out: Inhibition rate; for inhibition at 0.1 µg/mL: final concentration 0.1 μg/mL; for inhibition at 1 µg/mL: final concentration 1 μg/mL; for inhibition at 10 µg/mL: final concentration 10 μg/mL
Experimental: as §3, §4, §5

[7] = test system: human colon cancer HT-29 cells transplanted in nude mice; test: Growth inhibition of human cancer HT-29 cells transplanted in nude mice; format: in vivo; conditions: for Body weight d0 / Body weight d21: nude mice with HT-29 tumor; for Body weight d0: d0, time of administration in separate cages; for Body weight d0 / TV d0: 30 mg/kg group; for Body weight d21 / T/C (%) / RTV / TV d21: 30 mg/kg intragastrically once a day for 21 days; for T/C (%): relative tumor proliferation rate TRTV/CRTV; for RTV: relative tumor volume TVt/TV0; for TV d0: tumor volume at d0, time of administration in separate cages; for TV d21: tumor volume at d21
Experimental: A piece of tumor tissue in vigorous growth phase was obtained and cut into the size of about 1.5 mm^3, and subcutaneously inoculated into the right axillary region of nude mice aseptically. Diameters of transplanted tumors in nude mice were measured with a vernier caliper. After tumors grew to 100˜300 mm^3, the animals were randomly divided into 6 groups: model control group, Sunitinib group (30 mg/kg), Compound 1 group (30 mg/kg), Compound 2 group (30 mg/kg), Compound 3 group (30 mg/kg), Compound 4 group (30 mg/kg). […] Meanwhile, the negative control group was administered equivalent amount of sterile saline. The dynamic observation of antitumor effects of compounds 1-4 and Sunitinib was performed by measuring tumor diameters. […] The general behavior of nude mice was observed and recorded daily. (1) Tumor volume (TV), calculated by the equation: […] wherein a, b represent length and width, respectively. […] RTV=TVt/TV0 wherein TV0 represents the tumor volume at the beginning of administration in separated cages (ie. d0), TVt represents the tumor volume of each measurement. […] T/C %=(TRTV/CRTV)×100% TRTV: RTV of positive control group and each test compound group. CRTV: RTV of model control group.

Fibroblast NIH/3T3 = test: Inhibition of fibroblast NIH/3T3 proliferation (MTT); format: cell-based; conditions: Mus musculus, NIH3T3, 48 h, read-out: Inhibition of NIH/3T3 cell proliferation in vitro IC50
Source text: The method commonly used at present for studying fibroblast proliferation associated diseases, i.e., for studying tissue and organ fibrosis, is measuring effects of test compounds on NIH/3T3 cell proliferation (Gao Z. M., Wan K., Effect of inhibition of NIH/3T3 cell proliferation by Cantharidin on prevention and treatment of organ and tissue fibrosis. Chinese Journal of Clinical Rehabilitation, 2004 (2). Tao Y. Y., Wang X. L., Effects of Salvianolic Acid-B on TGF-β1/ERK Signaling Transduction in NIH/3T3 Fibroblast. Journal of Capital Medical University, 2007 (2)).
Fibroblast NIH/3T3 in logarithmic growth phase was seeded in a 96-well plate, by a certain number of cells (100 μL/well, 0.5−1×10^4 cells/mL). After incubating for 24 h, the screened samples (20 μl/well) were added (directly added after cell suspension was seeded in the plate), incubated for further 48 h at 37° C. and 5% CO2. Afterwards, MTT (5 mg/mL) was added to the 96-well plate (20 μL/well). The cells were incubated for another 4 h, and then dissolved with DMSO (150 μL/well) and measured with a microplate reader at 490 nm. The inhibition rate and IC50 were calculated.

| SMILES | pIC50 (breast cancer cell A435) | melting point [°C] | inhibition at 0.1 µg/mL [1] [%] | inhibition at 1 µg/mL [1] [%] | inhibition at 10 µg/mL [1] [%] | inhibition at 0.1 µg/mL [2] [%] | inhibition at 1 µg/mL [2] [%] | inhibition at 10 µg/mL [2] [%] | pIC50 (Lung cancer cell H460) | pIC50 [3] | inhibition at 0.1 µg/mL [4] [%] | inhibition at 1 µg/mL [4] [%] | inhibition at 10 µg/mL [4] [%] | inhibition at 0.1 µg/mL [5] [%] | inhibition at 1 µg/mL [5] [%] | inhibition at 10 µg/mL [5] [%] | inhibition at 0.1 µg/mL [6] [%] | inhibition at 1 µg/mL [6] [%] | inhibition at 10 µg/mL [6] [%] | Body weight d0 [7] [g] | further results |
| --- | --- | --- | --- | --- | --- | --- | --- | --- | --- | --- | --- | --- | --- | --- | --- | --- | --- | --- | --- | --- | --- |
| CCN1CCCC1CNC(=O)c1c(C)[nH]c(/C=C2\C(=O)Nc3ccc(F)cc32)c1C (stereo not shown) [Compound 1, N-[(1-ethylpyrrolidin-2-yl)methyl]-5-(5-fluoro-2-oxo-1,2-dihydroindole-3-methylene)-2,4-dimethyl-1H-pyrrole-3-formamide] | 7.20 | 232 to 236 | -8.3 | 6.9 | 92.2 | 14.8 | 20 | 93.9 | 7.21 | 7.11 | 4.69 | 32.5 | 97.4 | -21.2 | -0.47 | 88.5 | 18.6 | 31.1 | 99.3 | 20.2 ± 1.9 | growth inhibition of human colon cancer HT-29 cells transplanted in nude mice (in words) ([7]; 30 mg/kg continuously administered intragastrically): strongest inhibition of tumor proliferation; Body weight d21 [7]: 21.5 ± 1.3 g; T/C (%) [7]: 10.1%; RTV [7]: 0.9 ± 0.2; TV d0 [7]: 194.7 ± 57.7 mm^3; TV d21 [7]: 163.7 ± 33.6 mm^3; pIC50 (Fibroblast NIH/3T3): 6.69 |
| Cc1[nH]c(/C=C2\C(=O)Nc3ccc(F)cc32)c(C)c1C(=O)NCCC1CCCN1C (stereo not shown) [Compound 2, N-[(1-methylpyrrolidin-2-yl)ethyl]-5-(5-fluoro-2-oxo-1,2-dihydroindole-3-methylene)-2,4-dimethyl-1H-pyrrole-3-formamide] | 7.07 | 241 to 244 | -0.2 | 16.5 | 71.6 | 4.73 | 20.2 | 76.2 | 6.80 | 6.96 | -6.18 | 24.7 | 97.2 | -6.59 | -10.8 | 74.8 | 0.59 | 29.9 | 100 | 19.7 ± 1.7 | Body weight d21 [7]: 19.7 ± 1.6 g; T/C (%) [7]: 17.8%; RTV [7]: 1.6 ± 0.9; TV d0 [7]: 193.5 ± 61.9 mm^3; TV d21 [7]: 342.9 ± 284.7 mm^3; pIC50 (Fibroblast NIH/3T3): 6.27 |
| Cc1[nH]c(/C=C2\C(=O)Nc3ccc(F)cc32)c(C)c1C(=O)NCC1CCCCN1 (stereo not shown) [Compound 3] | 7.17 | 263 to 266 | -5.4 | 0.5 | 88.6 | -5.42 | 17 | 78.8 | 6.85 | 6.96 | -3.2 | 50.8 | 98 | -18.6 | 4 | 62.1 | 11.9 | 22.7 | 94.2 | 20.6 ± 2.0 | Body weight d21 [7]: 20.8 ± 2.3 g; T/C (%) [7]: 15.0%; RTV [7]: 1.3 ± 0.7; TV d0 [7]: 196.7 ± 62.7 mm^3; TV d21 [7]: 290.4 ± 238.4 mm^3; pIC50 (Fibroblast NIH/3T3): 6.28 |
